We go through 8 compounds from article PMC6143625, “A high throughput screen for next-generation leads targeting malaria parasite transmission” (Nature Communications, 2018).

Series [1] has as its system P. berghei-ANKA-GFP-Luc-SMCON sporozoites in HepG2-A16-CD81EGFP cells. Put plainly: P. berghei liver stage assay (luciferase sporozoite HepG2 invasion). Format: cell-based. The settings on record: Plasmodium berghei, 48h incubation, read-out: Pb Liver invasion assay IC50. The procedure:
(§1) Compound inhibition of P. berghei sporozoite liver infection was assessed in a high-throughput luciferase assay. 1536-well plates (789173-F, Greiner Bio-One) were pre-seeded with 5 µl HepG2-A16-CD81^EGFP cells grown in DMEM (11965–092, Invitrogen) containing 10% FBS (35–011-CV, Corning) and 1× Pen Strep Glutamine (10378–016, Invitrogen). Then, 50 nl of compound in DMSO was dispensed in 12-point serial dilution dose-response format (50 µM to 2.82 × 10^−4 µM), and incubated overnight.A. stephensi mosquitoes infected with P. berghei-ANKA-GFP-Luc-SMCON (Pb-Luc)[41] sporozoites bearing the antifolate-resistance-conferring Toxoplasma gondii dihydrofolate reductase-thymidylate synthase selectable marker, pyR2. After dissection, ~1000 sporozoites in 5 µl screening media (DMEM, 11965–092, Invitrogen; 5% FBS, 35–011-CV, Corning; 5x Pen Strep Glutamine, 10378–016, Invitrogen) were added per well and incubated for 48 h (37 °C, 5% CO2). Bioluminescence was measured using an EnVision microplate reader (Perkin Elmer), following the addition of 2 µl per well of Bright-Glo™ (Promega). Compound toxicity against HepG2 cells was determined in parallel by measuring cellular ATP levels reported by luciferase activity. Methods were similar to the P. berghei liver stage assay, except for the addition of CellTiter-Glo® (Promega) as a detection reagent. DMSO (0.5%) was used as a negative control in both assays, with Atovaquone (5 µM) and Puromycin (10 µM) acting as positive controls in the P. berghei and toxicity assays, respectively.

For the next series, the system named is HepG2 cells. Put plainly: HepG2 toxicity (CellTiter-Glo, parallel to liver stage assay). The settings on record: human, 48 h. Format: cell-based, human. The procedure:
as §1
A general note: Cellular ATP, detected with luciferase, serves as a proxy for viable cell number.

In series [2] the test system is P. berghei strain CTRPpGFP early mosquito stage (ookinete) development. Put plainly: P. berghei ookinete development assay (Pb ODA). Format: cell-based, Plasmodium berghei. The settings on record: Plasmodium berghei; 24h incubation. The procedure:
All mouse procedures were performed in accordance with the UK Animals (Scientific Procedures) Act (PPL 70/7185) and approved by the Imperial College Animal Welfare and Ethical Review Body (AWERB). The ability of test compounds to inhibit P. berghei early mosquito stage development was tested in the Ookinete Development Assay[37] with a few exceptions. Anaesthetised 6- to 8-week-old female Tucks Ordinary (TO) mice infected with P. berghei strain CTRPpGFP[38] were rapidly exsanguinated by cardiac puncture and 500 µl of blood diluted in 25 ml of ookinete medium supplemented with 20% foetal bovine serum. Immediately the blood/medium mixture was dispensed by multichannel pipette into 384 well plates containing pre-plated test compounds. 10 µM cycloheximide and DMSO were used as the positive and negative controls, respectively. Plates were stored in the dark in a humidified incubator at 18 °C for 24 h. Ookinete production was imaged by fluorescence microscopy of GFP expression under the ookinete-specific CTRP promoter using a Nikon Ti-E widefield microscope and ×10 objective. Ookinete production was quantified using ICY and percentage inhibition calculated as above with reference to positive and negative controls.

Series [3] concerns P. falciparum stage V female gametocytes (female gamete formation). Briefly: P. falciparum dual gamete formation assay (Pf DGFA), female readout (Pfs25 expression), 48 h carry-over format. In kind it is cell-based, Plasmodium falciparum NF54. To be noted: Plasmodium falciparum; for inhibition at 2 µM: primary screen, single replicate.
Series [4] concerns P. falciparum female gamete formation. Put plainly: Pf DGFA add-in format, female readout. Format: cell-based. To be noted: Plasmodium falciparum; 0h preincubation/add-in. The procedure: In profiling mode, the Pf DGFA was performed in 96-well plates[23] in wash-out and add-in formats to aid manual manipulation steps. In the wash-out format, gametocytes were incubated for 24 h with test compounds in round-bottomed 96 well plates and then culture medium replaced three times over 6 h, to remove as much of the compound as possible from the well. […] In add-in format, gametocytes were added directly to flat-bottomed 96-well plates containing test compounds, ookinete medium and anti-Pfs25.

Setting [5] is: 24h preincubation/carry-over, read-out: Pf DGFA Female IC50.
The mark [6] stands for this setting: 48 h, dose response retest of primary hits, 48 h incubation, read-out: Female IC50.
[7] abbreviates: 48h preincubation/carry-over, read-out: Pf DGFA Female IC50.

Read-outs that look alike come from different tables or passages of the source.

For orientation: IC50 means the point on the concentration scale where inhibition reaches its midpoint. What is called inhibition is how much of the control response was suppressed. High values mean strong suppression, low ones little suppression. On to `CC(C)CN1CCn2nc(CNc3ncnc4[nH]ccc34)cc2C1` [DDD01249504], for which the IC50 is > 50 µM in series [1]; > 25 µM in series [2]; > 25 µM in series [3] (setting [5]); > 10 µM in series [3] (setting [6]); > 25 µM in series [3] (setting [7]); > 10 µM in series [4]. In the series on HepG2 cells, the “Human HepG2 assay TOX50” value was >50.0 µM. For the same compound, the inhibition at 2 µM in series [3] (48 h incubation) is < 30%.
Consider `CCCn1nccc1C(=O)N1CCN(C2CCc3ccccc3C2)CC1` (stereo not shown) [DDD01251134], for which the IC50 in series [1] was 20.7 µM; in series [2], > 12.5 µM; in series [3] (setting [5]), > 12.5 µM; in series [3] (setting [7]), > 12.5 µM; in series [4] it was > 10 µM. Also, in the series with HepG2 cells, the “Human HepG2 assay TOX50” value is recorded as >50.0 µM.
As for `Cc1nn(C)c(Oc2ccc(Cl)cc2)c1CN1CCC(CN)C1` (stereo not shown) [DDD01254274], the IC50 in series [1] is > 50 µM; in series [2], > 25 µM; in series [3] (setting [5]) it was > 25 µM; in series [3] (setting [6]), > 10 µM; in series [3] (setting [7]), > 25 µM; in series [4] it was > 10 µM. Besides, the “Human HepG2 assay TOX50” value in the series on HepG2 cells is reported as >50.0 µM. The inhibition at 2 µM in series [3] (48 h incubation) was < 30%.
As to `CCc1ccc(C2c3nc[nH]c3CCN2Cc2nccn2CC)nc1` (stereo not shown) [DDD01254473], the IC50 is > 50 µM in series [1]; > 12.5 µM in series [2]; > 25 µM in series [3] (setting [5]); 2.79 µM in series [3] (setting [6]); 0.167 µM in series [3] (setting [7]); > 10 µM in series [4]. Also, the “Human HepG2 assay TOX50” value in the series with HepG2 cells was >50.0 µM. The inhibition at 2 µM in series [3] (48 h incubation) stood at 30.5%.
For the compound `CCOc1ccc2ccccc2c1CNCC1CCNCC1.Cl.Cl` [DDD01255740], the IC50 was 13.2 µM in series [1]; > 12.5 µM in series [2]; > 25 µM in series [3] (setting [5]); > 10 µM in series [3] (setting [6]); 1.88 µM in series [3] (setting [7]); > 10 µM in series [4]. In the series with HepG2 cells, the “Human HepG2 assay TOX50” value is given as >50.0 µM. In addition, the inhibition at 2 µM in series [3] (48 h incubation) is < 30%.
Consider `Cc1ccc(-c2cc(C(=O)NCCC3=CCCCC3)[nH]n2)o1` [DDD01255968], for which the IC50 in series [1] is 17.6 µM; in series [2] it was > 12.5 µM; in series [3] (setting [5]), > 12.5 µM; in series [3] (setting [6]) it was > 10 µM; in series [3] (setting [7]) it was > 12.5 µM; in series [4] it was > 10 µM. Besides, the “Human HepG2 assay TOX50” value with HepG2 cells is >50.0 µM. Also, in series [3] (48 h incubation), the inhibition at 2 µM is < 30%.
Regarding `CCn1ncc(Br)c1CN(C)S(=O)(=O)c1ccc(C)cc1` [DDD01259521], the IC50 in series [1] is 8.64 µM; in series [2], > 12.5 µM; in series [3] (setting [5]), > 12.5 µM; in series [3] (setting [7]) it was > 12.5 µM; in series [4], > 10 µM. Also, in the series with HepG2 cells, the “Human HepG2 assay TOX50” value was >50.0 µM.
Turning to `c1cnnc(N2CCCC2CNc2ncnc3sccc23)c1` (stereo not shown) [DDD01299704], the IC50 is 16.4 µM in series [1]; > 12.5 µM in series [2]; > 12.5 µM in series [3] (setting [5]); > 12.5 µM in series [3] (setting [7]); > 10 µM in series [4]. In the series on HepG2 cells, the “Human HepG2 assay TOX50” value is on record as >50.0 µM.
